Data on one molecule can be found in patent publication US20070185150A1, “Therapeutic methods” (priority 2005, published 2007).

A short description of series [1]: Phase I dose escalation trial of oral AP23573: safety, tolerability and maximum tolerated dose. The series is classed as in vivo, patients. From the text:
Background: In phase I clinical trials with an intravenous (IV) formulation of the mTOR inhibitor, AP23573, the drug was well-tolerated and active in a broad range of cancers. This trial is undertaken to assess the safety, tolerability and maximum tolerated dose (MTD) of an orally administered dosage form of AP23573. Secondary objectives include characterization of the pharmacokinetic (PK) and pharmacodynamic (PD) profiles of AP23573, as well as antitumor activity.
(§1) Methods: Eligible patients (in cohorts of at least 3 patients) initially are randomized at the same flat, fixed starting dose of 20 mg/day into one of three 28-day dosing schedules, i.e. once daily continuous dosing for 4 days every week (QD×4), 21 of 28 days (QD×21), or all 28 days (QD×28). The subsequent dose level is determined based on review of safety and tolerability during Cycle 1 and enrollment for each schedule proceeds independently. Antitumor activity is assessed every 2 cycles. Whole blood is collected for PK assessment and peripheral blood mononuclear cells collected for PD assessment of the levels of phosphorylated 4E-BP1, a downstream target of mTOR.

Series [2] is described as follows: Phase I trial of oral AP23573: whole blood PK assessment. The conditions noted are these: three schedules, 20 mg/day, Day 1 of Cycle 1, preliminary PK analysis. The series is classed as in vivo, patients. On the procedure: as §1
Series [3] concerns phosphorylated 4E-BP1, a downstream target of mTOR. Briefly: Phase I trial of oral AP23573: PD assessment of phosphorylated 4E-BP1 levels in peripheral blood mononuclear cells. In kind it is in vivo, patients. The procedure: as §1
Series [4] has as its system refractory or advanced malignancies. In words: Phase I trial of oral AP23573: antitumor activity assessed every 2 cycles. The series is classed as in vivo, patients. The procedure: as §1
The subject of the next series is sarcoma and other tumors. In words: Additional clinical studies of oral AP23573 on QD×5 schedule: anti-tumor activity (Clinical Benefit Response). The series is classed as in vivo, patients. The conditions noted are these: QD×5 schedules. On the procedure:
(§2) Additional clinical studies of AP23573 were conducted using a QD×5 dosing schedule for the delivery of 30, 40 or 50 mg of AP23573/day. A set of patients receiving the 30 mg and 50 mg doses were also given a loading dose on the first day of each week, which doubled the dose that day to 60 and 100 mg, respectively.
(§3) Methods: In a Phase 1/2a trial of single-agent oral AP23573, 17 patients, 9 of whom are sarcoma patients, were studied at the chosen dose and schedule (40 mg QD×5). In addition, of 7 patients who began dosing at 50 mg QD×5, 4 patients (2 of whom are sarcoma patients) underwent dose reduction to 40 mg. Twenty-one patients, therefore, received 40 mg QD×5, of whom 11 are sarcoma patients.
(§4) In another QD×5 study in which the dose on day 1 of each week was doubled (to comprise a loading dose), 7 patients (6 sarcoma patients) received doses of 60, 30, 30, 30 and 30 mg over each week (i.e., 30 mg QD×5, with the dose on day 1 doubled). Five other patients (2 sarcoma patients) received 50 mg QD×5, with the dose on day 1 doubled to 100 mg.
(§5) Overall, 36 patients were dosed on a QD×5 schedule, of whom 12 received loading doses on day 1 of each week.

Series [5] can be described thus: Additional clinical studies of oral AP23573 on QD×5 schedule: tolerability. The series is classed as in vivo. On the procedure:
as §2, §3, §4, §5

On to `CO[C@H]1C[C@@H]2CC[C@@H](C)[C@@](O)(O2)C(=O)C(=O)N2CCCC[C@H]2C(=O)O[C@H]([C@H](C)C[C@@H]2CC[C@@H](OP(C)(C)=O)[C@H](OC)C2)CC(=O)[C@H](C)/C=C(\C)[C@@H](O)[C@@H](OC)C(=O)[C@H](C)C[C@H](C)/C=C/C=C/C=C/1C` [AP23573], for which the “dose-limiting toxicity (DLT)” value is “no dose-limiting toxicity (DLT) was reported” in series [1] (QD×4 20 mg/day cohort); “no DLTs” in series [1] (QD×4 30 mg/day schedule); “severe stomatitis and fatigue” in series [1] (QD×21 cohort, 20 mg/day); “severe stomatitis and fatigue” in series [1] (QD×28 cohort, 20 mg/day). Also, in series [1] (QD×4 60 and 70 mg/day cohort), the side effects entry is “side effects were reported”. The “maximum tolerated daily dose” value in series [1] (QD×4 schedule) was 50 mg/day; in series [1] (QD×21 schedule) it was 10 mg/day; in series [1] (QD×28 schedule), 15 mg/day. In addition, the “severity of adverse events related to AP23573 during Cycle 1” value in series [1] (three schedules) is recorded as “mild or moderate in severity, reversible”. The “adverse events related to AP23573 during Cycle 1 in at least 2 patients” value in series [1] (three schedules, 10 to 30 mg/day) was “mucositis, fatigue, rash, diarrhea, anorexia, and nausea”. Moreover, the Cmax range in series [2] was 77 to 163 ng/mL. The “median Cmax” value in series [2] is reported as 98.5 ng/mL. In series [3] (1 day after dosing), the “reduction of phosphorylated 4E-BP1 levels” value is greater than 80%. In addition, in series [3] (during the dosing period), the “phosphorylated 4E-BP1 levels during the dosing period” value is listed as “remain reduced during the dosing period”. Also, the “antitumor activity (decrease)” value in series [4] (patient with metastatic breast carcinoma, qd×4, 20 mg/day cohort) amounted to 22%; in series [4] (patient with metastatic renal cell carcinoma, qd×21, 20 mg/day cohort), 21%. Besides, the disease status entry in series [4] (patient with soft tissue sarcoma, QD×4, 20 mg/day cohort, after 2 cycles) is on record as “stable disease”. In addition, in the series with sarcoma and other tumors, the “evaluable sarcoma patients that were CBRs” value came out at 43%. In addition, in the series on sarcoma and other tumors (of the 26 evaluable patients), the “patients achieving a Clinical Benefit Response (CBR)” value is “Seven”. Besides, the side-effects entry in series [5] (40 mg QD×5) was “generally mild or moderate and manageable”. Further, the “tolerability of dose level” value in series [5] (50 mg QD×5 with the dose on day 1 doubled to 100 mg) is listed as “exceed the maximum tolerated dose”.
